Measurements reported in ChEMBL document CHEMBL5500348, “Novel 6-alkyl-bridged 4-arylalkylpiperazin-1-yl derivatives of azepino[4,3-b]indol-1(2H)-one as potent BChE-selective inhibitors showing protective effects against neurodegenerative insults” (Eur J Med Chem, 2024).
pEC50, pIC50, pKd, pKi: −log10 of the molar value. ≈ marks a conversion by molar mass, not a printed value. Calls of active or inactive are those of the source. No cut-off for these calls is given here.

Key:
[1] = target: T1, Cholinesterase (Equus caballus, UniProt P81908); assay: Inhibition of equine serum BuChE using butyrylthiocholine iodide as substrate preincubated for 20 mins followed by substrate addition and measured after 10 mins by DTNB based Ellman's method
[2] = test system: equine serum BuChE; assay: Selectivity ratio of IC50 for cytotoxicity against human SH-SY5Y cells to IC50 for inhibition of equine serum BuChE using butyrylthiocholine iodide as substrate; format: toxicity, cell-based; conditions: probe butyrylthiocholine iodide, read-out: Ratio IC50
[3] = Antioxidant activity assessed as ROS scavenging activity relative to control; format: functional
[4] = target: Amyloid-beta precursor protein (Homo sapiens) (UniProt P05067); assay: Inhibition of self induced amyloid-beta (1 to 40) (unknown origin) aggregation at 100 uM incubated for 2 hrs by ThT fluorescence based spectrofluorimetric analysis relative to control
[5] = target: Albumin (Homo sapiens, UniProt P02768); assay: Binding affinity to human serum albumin assessed as equilibrium dissociation constant by SPR analysis; format: ADME
[6] = target: Acetylcholinesterase (Electrophorus electricus, UniProt O42275); assay: Inhibition of electric eel AChE using acetylthiocholine iodide as substrate preincubated for 20 mins followed by substrate addition and measured after 10 mins by DTNB-reagent based Ellman's method
[7] = target: T2, serum albumin (Homo sapiens, UniProt P02768); assay: Binding affinity to human serum albumin assessed as dissociation rate constant (Koff) by SPR analysis; format: ADME; conditions: read-out: K
[8] = target: T2, serum albumin; assay: Binding affinity to human serum albumin assessed as residence time by SPR analysis; format: ADME
[9] = target: T1, Cholinesterase
Description: Binding affinity to equine BChE in phosphate buffer at pH 8 assessed as equilibrium dissociation constant by SPR analysis

[10] = Cytotoxicity against human SH-SY5Y cells assessed as reduction in cell viability incubated for 24 hrs by MTT assay; format: toxicity, cell-based
[11] = target: T3, Cholinesterase (Homo sapiens, UniProt P06276); assay: Inhibition of human BuChE using butyrylthiocholine iodide as substrate preincubated for 20 mins followed by substrate addition and measured after 10 mins by DTNB based Ellman's method
[12] = target: Acetylcholinesterase (Homo sapiens) (UniProt P22303); assay: Inhibition of human AChE using acetylthiocholine iodide as substrate at 20 uM preincubated for 20 mins followed by substrate addition and measured after 10 mins by DTNB-reagent based Ellman's method relative to control; conditions: time 30.0 min
[13] = target: T1, Cholinesterase; assay: Mixed-type inhibition of equine serum BChE using varying concentrations of butyrylthiocholine iodide as substrate assessed as inhibition constant by Lineweaver-Burk plot analysis
[14] = target: Cholinesterase (Equus caballus) (UniProt P81908); assay: Mixed-type inhibition of equine serum BChE using varying concentrations of butyrylthiocholine iodide as substrate assessed as change in Km and Vmax at 0.05 to 0.5 uM by Lineweaver-Burk plot analysis; conditions: dose 0.05-0.5 µM
[15] = Aqueous solubility of compound in phosphate buffered solution at pH 7.4 incubated for 1 hr under shaking condition by HPLC analysis; format: physicochemical
[16] = test system: SH-SY5Y; assay: Protection against NMDA-induced cytotoxicity in human SH-SY5Y cells assessed as increase in cell viability at 5 to 20 uM incubated for 24 hrs by MTT assay; format: functional, cell-based; conditions: dose 5-20 µM
[17] = test system: SH-SY5Y; assay: Cytoprotective activity against H2O2-induced oxidative stress in human SH-SY5Y cells assessed as increase in cell viability at 20 uM incubated for 24 hrs by MTT assay; format: functional, cell-based
[18] = test system: SH-SY5Y; assay: Protection against NMDA-induced cytotoxicity in human SH-SY5Y cells assessed as increase in cell viability at 1 uM incubated for 24 hrs by MTT assay; format: functional, cell-based
[19] = target: Acetylcholinesterase (Electrophorus electricus) (UniProt O42275); assay: Inhibition of electric eel AChE using acetylthiocholine iodide as substrate at 20 uM preincubated for 20 mins followed by substrate addition and measured after 10 mins by DTNB-reagent based Ellman's method relative to control; conditions: time 30.0 min
[20] = target: Amyloid-beta precursor protein (Homo sapiens) (UniProt P05067); assay: Inhibition of amyloid beta (unknown origin) aggregation at 100 uM relative to control
[21] = target: T3, Cholinesterase; assay: Inhibition of BChE (unknown origin) at 10 uM relative to control
[22] = target: Acetylcholinesterase (Homo sapiens) (UniProt P22303); assay: Inhibition of AChE (unknown origin) at 10 uM relative to control
[23] = test system: SH-SY5Y; assay: Cytoprotective activity against H2O2-induced oxidative stress in human SH-SY5Y cells assessed as increase in cell viability incubated for 24 hrs by MTT assay; format: functional, cell-based

Chain of Acetylcholinesterase (Electrophorus electricus) (O42275 24-633 limits assumed): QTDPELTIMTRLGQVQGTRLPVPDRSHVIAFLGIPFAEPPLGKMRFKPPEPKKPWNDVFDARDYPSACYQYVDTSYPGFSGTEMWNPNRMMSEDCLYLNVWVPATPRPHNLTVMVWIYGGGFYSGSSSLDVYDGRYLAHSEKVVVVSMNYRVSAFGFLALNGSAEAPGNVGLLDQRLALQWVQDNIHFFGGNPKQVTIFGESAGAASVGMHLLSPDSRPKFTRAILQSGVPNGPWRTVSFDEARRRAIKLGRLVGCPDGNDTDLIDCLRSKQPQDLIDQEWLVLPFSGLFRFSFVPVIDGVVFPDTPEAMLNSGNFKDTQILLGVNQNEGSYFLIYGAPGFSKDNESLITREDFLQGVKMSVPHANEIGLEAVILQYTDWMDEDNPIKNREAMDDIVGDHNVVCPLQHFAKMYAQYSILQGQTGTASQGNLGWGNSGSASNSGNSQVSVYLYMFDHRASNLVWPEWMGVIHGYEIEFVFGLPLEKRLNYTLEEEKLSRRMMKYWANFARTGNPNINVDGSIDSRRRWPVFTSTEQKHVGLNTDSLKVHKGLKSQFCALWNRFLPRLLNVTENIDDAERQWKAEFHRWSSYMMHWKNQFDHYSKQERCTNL
T2 sequence (P02768 whole entry): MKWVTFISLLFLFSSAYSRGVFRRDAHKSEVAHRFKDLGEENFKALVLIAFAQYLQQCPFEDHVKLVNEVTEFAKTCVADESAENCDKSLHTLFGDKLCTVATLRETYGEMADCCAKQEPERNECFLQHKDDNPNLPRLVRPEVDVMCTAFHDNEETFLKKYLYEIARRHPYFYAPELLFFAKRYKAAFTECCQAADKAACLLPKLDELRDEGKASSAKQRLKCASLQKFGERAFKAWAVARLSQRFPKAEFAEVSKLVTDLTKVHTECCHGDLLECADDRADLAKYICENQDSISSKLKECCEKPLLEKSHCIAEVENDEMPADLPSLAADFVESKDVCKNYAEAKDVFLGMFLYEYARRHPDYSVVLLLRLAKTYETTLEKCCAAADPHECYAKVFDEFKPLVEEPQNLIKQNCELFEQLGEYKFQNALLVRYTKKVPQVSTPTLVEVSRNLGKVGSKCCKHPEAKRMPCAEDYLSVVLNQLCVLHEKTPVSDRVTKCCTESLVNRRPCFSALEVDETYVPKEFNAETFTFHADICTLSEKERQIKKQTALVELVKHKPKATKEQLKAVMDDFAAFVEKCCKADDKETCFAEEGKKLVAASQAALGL
Chain of Albumin (P02768 whole entry): as above
Chain of Acetylcholinesterase (O42275 whole entry): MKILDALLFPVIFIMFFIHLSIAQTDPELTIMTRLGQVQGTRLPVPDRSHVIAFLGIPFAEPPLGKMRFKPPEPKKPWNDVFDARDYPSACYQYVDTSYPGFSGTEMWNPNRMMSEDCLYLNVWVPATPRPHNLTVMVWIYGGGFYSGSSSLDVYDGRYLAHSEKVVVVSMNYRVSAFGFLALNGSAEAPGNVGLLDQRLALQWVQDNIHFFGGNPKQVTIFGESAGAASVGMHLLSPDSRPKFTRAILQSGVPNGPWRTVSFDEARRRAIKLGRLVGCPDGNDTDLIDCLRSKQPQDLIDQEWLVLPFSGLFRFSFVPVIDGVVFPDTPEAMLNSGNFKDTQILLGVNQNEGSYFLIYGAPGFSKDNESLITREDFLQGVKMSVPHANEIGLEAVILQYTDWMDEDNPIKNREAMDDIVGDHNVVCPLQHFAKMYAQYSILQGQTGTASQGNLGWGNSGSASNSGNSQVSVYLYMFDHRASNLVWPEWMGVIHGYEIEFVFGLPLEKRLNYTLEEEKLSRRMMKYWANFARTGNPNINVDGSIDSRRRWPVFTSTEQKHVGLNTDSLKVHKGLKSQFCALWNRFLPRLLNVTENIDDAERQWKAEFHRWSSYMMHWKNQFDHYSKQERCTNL
Chain of Amyloid-beta precursor protein (Homo sapiens) (P05067 whole entry): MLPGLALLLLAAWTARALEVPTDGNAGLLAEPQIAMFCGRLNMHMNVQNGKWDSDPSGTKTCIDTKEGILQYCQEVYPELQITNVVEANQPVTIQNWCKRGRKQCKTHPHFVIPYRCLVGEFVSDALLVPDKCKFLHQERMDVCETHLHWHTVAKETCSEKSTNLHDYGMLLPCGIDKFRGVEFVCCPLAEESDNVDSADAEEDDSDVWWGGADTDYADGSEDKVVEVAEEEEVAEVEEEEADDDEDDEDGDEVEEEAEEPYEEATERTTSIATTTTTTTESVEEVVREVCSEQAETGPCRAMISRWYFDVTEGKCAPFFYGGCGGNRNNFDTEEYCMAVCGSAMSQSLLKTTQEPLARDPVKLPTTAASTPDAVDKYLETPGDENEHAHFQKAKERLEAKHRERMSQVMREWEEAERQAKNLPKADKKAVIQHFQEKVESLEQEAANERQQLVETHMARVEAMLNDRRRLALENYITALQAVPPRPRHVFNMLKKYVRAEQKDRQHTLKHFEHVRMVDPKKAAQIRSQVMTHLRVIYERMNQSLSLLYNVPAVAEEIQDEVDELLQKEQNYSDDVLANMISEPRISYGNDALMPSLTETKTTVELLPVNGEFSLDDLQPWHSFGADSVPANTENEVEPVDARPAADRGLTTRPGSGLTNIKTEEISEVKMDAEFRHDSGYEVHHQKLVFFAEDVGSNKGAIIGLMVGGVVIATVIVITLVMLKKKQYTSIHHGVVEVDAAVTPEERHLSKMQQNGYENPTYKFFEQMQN
T3 sequence (P06276 whole entry): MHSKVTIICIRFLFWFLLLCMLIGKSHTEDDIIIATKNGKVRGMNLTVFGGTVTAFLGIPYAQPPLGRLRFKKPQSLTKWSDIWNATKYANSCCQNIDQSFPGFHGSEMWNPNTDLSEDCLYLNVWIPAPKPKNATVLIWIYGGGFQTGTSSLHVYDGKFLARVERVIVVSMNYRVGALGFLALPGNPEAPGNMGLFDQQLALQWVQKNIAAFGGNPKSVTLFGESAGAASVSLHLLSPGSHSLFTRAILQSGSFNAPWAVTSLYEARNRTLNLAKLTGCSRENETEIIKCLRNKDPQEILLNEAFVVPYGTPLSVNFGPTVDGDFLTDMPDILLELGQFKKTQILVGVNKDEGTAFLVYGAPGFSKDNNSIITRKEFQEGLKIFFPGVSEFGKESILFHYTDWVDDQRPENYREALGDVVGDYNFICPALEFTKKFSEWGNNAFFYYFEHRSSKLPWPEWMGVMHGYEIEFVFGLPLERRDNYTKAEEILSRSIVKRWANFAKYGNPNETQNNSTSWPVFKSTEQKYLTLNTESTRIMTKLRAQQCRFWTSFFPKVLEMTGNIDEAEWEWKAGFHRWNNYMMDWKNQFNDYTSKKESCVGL
T1 sequence (P81908 whole entry): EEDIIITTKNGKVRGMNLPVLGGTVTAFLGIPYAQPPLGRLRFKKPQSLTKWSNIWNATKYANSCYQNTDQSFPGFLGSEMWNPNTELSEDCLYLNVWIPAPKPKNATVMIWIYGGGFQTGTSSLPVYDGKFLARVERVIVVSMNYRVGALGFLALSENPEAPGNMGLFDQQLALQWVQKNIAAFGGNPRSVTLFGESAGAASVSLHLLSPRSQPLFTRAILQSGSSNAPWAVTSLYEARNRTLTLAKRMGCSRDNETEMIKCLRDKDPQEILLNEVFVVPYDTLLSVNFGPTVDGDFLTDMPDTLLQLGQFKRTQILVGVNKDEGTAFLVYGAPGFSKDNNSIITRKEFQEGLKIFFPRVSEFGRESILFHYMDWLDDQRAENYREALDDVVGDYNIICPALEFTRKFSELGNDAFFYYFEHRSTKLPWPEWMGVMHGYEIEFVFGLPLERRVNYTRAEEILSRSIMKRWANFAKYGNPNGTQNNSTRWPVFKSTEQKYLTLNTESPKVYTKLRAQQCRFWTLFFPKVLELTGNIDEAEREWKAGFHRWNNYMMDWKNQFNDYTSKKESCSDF
Chain of Acetylcholinesterase (Homo sapiens) (P22303 whole entry): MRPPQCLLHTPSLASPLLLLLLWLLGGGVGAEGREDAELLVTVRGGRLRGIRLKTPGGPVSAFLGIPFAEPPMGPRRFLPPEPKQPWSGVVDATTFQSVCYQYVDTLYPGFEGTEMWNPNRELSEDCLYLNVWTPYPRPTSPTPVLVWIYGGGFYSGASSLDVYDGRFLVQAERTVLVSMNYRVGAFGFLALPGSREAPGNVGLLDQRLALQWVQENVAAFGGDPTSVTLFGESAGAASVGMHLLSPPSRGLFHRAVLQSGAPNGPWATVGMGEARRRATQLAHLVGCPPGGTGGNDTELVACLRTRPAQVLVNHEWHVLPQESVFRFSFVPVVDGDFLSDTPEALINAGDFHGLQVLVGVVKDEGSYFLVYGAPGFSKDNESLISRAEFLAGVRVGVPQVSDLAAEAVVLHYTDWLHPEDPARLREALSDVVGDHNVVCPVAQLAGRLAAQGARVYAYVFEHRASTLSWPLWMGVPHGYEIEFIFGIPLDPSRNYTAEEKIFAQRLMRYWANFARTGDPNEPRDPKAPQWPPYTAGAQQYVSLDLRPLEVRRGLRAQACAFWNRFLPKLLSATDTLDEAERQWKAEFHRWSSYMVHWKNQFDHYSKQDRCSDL
Chain of Cholinesterase (Equus caballus) (P81908 whole entry): as the sequence (P81908 whole entry) above

With `O=C1NCCCc2c1c1ccccc1n2CCCCCCCN1CCN(CCc2ccccc2)CC1` as the molecule, how does the pIC50 [1] read?
The pIC50 was 7.19.

What about the selectivity ratio [2] of the same molecule?
Its selectivity ratio is 800.

What about the Activity [3] of the same molecule?
The Activity was under 10%.

What about the inhibition [4] of the same molecule?
The inhibition was 62%.

What about the pKd [5] of the same molecule?
Its pKd is 5.45.

And the pIC50 [6]?
The pIC50 was 5.23.

And the koff [7]?
The koff was 0.151 s⁻¹.

What about the residence time [8] of the same molecule?
Its residence time is 0.1 min.

And the pKd [9]?
The pKd was 7.21.

What about the IC50 at 24 h [10] of the same molecule?
Its IC50 at 24 h is 60000 nM.

What about the pIC50 [11] of the same molecule?
The pIC50 was 7.14.

What about the inhibition [12] of the same molecule?
The inhibition was 39%.

What about the pKi [13] of the same molecule?
Its pKi is 7.57.

What about the inhibition [14] of the same molecule?
The inhibition was “Active”.

And the solubility at 1 h [15]?
Its solubility at 1 h is 6.1 µg/mL (≈ 12.5 µM).

And the Activity [16]?
The Activity was “inactive”.

What about the Activity [17] of the same molecule?
The Activity was “inactive”.

And the Activity [18]?
The Activity was “Active”.

With `O=C1NCCCc2c1c1ccccc1n2CCCCCCCN1CCN(c2ccccc2)CC1` as the molecule, how does the pIC50 [1] read?
Its pIC50 is 6.12.

And the pKd [5]?
The pKd was 5.79.

And the inhibition [19]?
Its inhibition is 17%.

And the koff [7]?
The koff was 0.069 s⁻¹.

What about the residence time [8] of the same molecule?
Its residence time is 0.25 min.

What about the pKd [9] of the same molecule?
Its pKd is 6.12.

With `O=C1NCCCc2c1c1ccccc1n2CCCCN1CCN(Cc2ccccc2)CC1` as the molecule, how does the pIC50 [1] read?
The pIC50 was 5.58.

What about the pIC50 [6] of the same molecule?
The pIC50 was 5.83.

For `CC(C)NCCCn1c2c(c3ccccc31)C(=O)NCCC2`, which inhibition [20] is on record?
Its inhibition is 50%.

And the inhibition [21]?
The inhibition was under 40%.

And the inhibition [22]?
The inhibition was under 40%.

With `O=C1NCCCc2c1c1ccccc1n2CCCCCN1CCN(c2ccccc2F)CC1` as the molecule, how does the pIC50 [1] read?
Its pIC50 is 6.00.

And the inhibition [19]?
Its inhibition is 35%.

Which results are given for `O=C1NCCCc2c1c1ccccc1n2CCN1CCN(Cc2ccccc2)CC1`?
pIC50 [1]: 5.18; inhibition [4]: 13%; pIC50 [6]: 5.18

With `O=C1NCCCc2c1c1ccccc1n2CCCCCCCN1CCN(Cc2cccnc2)CC1` as the molecule, how does the pIC50 [1] read?
Its pIC50 is 6.33.

And the inhibition [19]?
The inhibition was 40%.

With `O=C1NCCCc2c1c1ccccc1n2CCCCCCCN1CCN(Cc2ccncc2)CC1` as the molecule, how does the pIC50 [1] read?
Its pIC50 is 5.73.

And the pIC50 [6]?
The pIC50 was 5.15.

Which results are given for `O=C1NCCCc2c1c1ccccc1n2CCCCCN1CCN(c2ccccn2)CC1`?
pIC50 [1]: 6.14; inhibition [19]: 13%

Which results are given for `O=C1NCCCc2c1c1ccccc1n2CCCCCCCN1CCN(c2ccc(F)cc2)CC1`?
pIC50 [1]: 5.00; inhibition [19]: 10%

With `O=C1NCCCc2c1c1ccccc1n2CCCCCN1CCN(CCc2ccccc2)CC1` as the molecule, how does the pIC50 [1] read?
The pIC50 was 6.79.

And the selectivity ratio [2]?
The selectivity ratio was 500.

What about the Activity [3] of the same molecule?
The Activity was under 10%.

What about the inhibition [4] of the same molecule?
Its inhibition is 14%.

What about the pKd [5] of the same molecule?
Its pKd is 5.17.

And the inhibition [19]?
The inhibition was 39%.

What about the koff [7] of the same molecule?
Its koff is 0.092 s⁻¹.

And the residence time [8]?
The residence time was 0.183 min.

What about the pEC50 [23] of the same molecule?
Its pEC50 is about 5.82.

And the Activity ([23]; dose 1-20 µM)?
Its Activity is “Dose-Dependent Effect”.

What about the pKd [9] of the same molecule?
Its pKd is 6.83.

And the IC50 at 24 h [10]?
Its IC50 at 24 h is 88000 nM.

And the pIC50 [11]?
The pIC50 was 6.72.

What about the inhibition [12] of the same molecule?
The inhibition was 20%.

And the solubility at 1 h [15]?
Its solubility at 1 h is 169 µg/mL (≈ 368 µM).

What about the Activity [16] of the same molecule?
Its Activity is “inactive”.

What about the Activity [18] of the same molecule?
Its Activity is “Active”.

What does the source list for `O=C1NCCCc2c1c1ccccc1n2CCCCCCCN1CCN(c2ccccn2)CC1`?
pIC50 [1]: 5.68; pIC50 [6]: 5.04

With `O=C1NCCCc2c1c1ccccc1n2CCN1CCN(CCc2ccccc2)CC1` as the molecule, how does the pIC50 [1] read?
The pIC50 was 5.24.

What about the inhibition [4] of the same molecule?
Its inhibition is 55%.

And the inhibition [19]?
Its inhibition is 8%.
